Results as given in ChEMBL document CHEMBL4196088, “Induction of cell killing and autophagy by amphiphilic pyrrolidine derivatives on human pancreatic cancer cells” (Eur J Med Chem, 2018).
pIC50: −log10 of the molar value. Calls of active or inactive are those of the source. The calls are words filed in the database; no cut-off is given here.

Key:
PK9 [1] = test: Induction of apoptosis in human PK9 cells harboring BECN1 shRNA at 20 uM after 24 hrs by Annexin V/7-AAD staining based flow cytometry; assay type: functional, cell-based
BXPC-3 [2] = test: Induction of autophagy in human BxPC3 cells assessed as increase in LC3-2 protein expression at 20 uM after 48 hrs in presence of autophagy inhibitor bafilomycin A1 by Western blot analysis; assay type: functional, cell-based
PANC-1 [3] = test: Induction of apoptosis in human PANC1 cells assessed as accumulation at sub-G0/G1 phase at 20 uM by propidium iodide staining based flow cytometry; assay type: functional, cell-based; conditions: TDE = time-dependent effect
BXPC-3 [4] = test: Induction of apoptosis in human BxPC3 cells harboring pSFFV-Bcl-XL assessed as accumulation at sub-G0/G1 phase at 20 uM by propidium iodide staining based flow cytometry; assay type: functional, cell-based; conditions: TDE = time-dependent effect
BXPC-3 [5] = test: Induction of apoptosis in human BxPC3 cells assessed as accumulation at sub-G0/G1 phase harboring pSFFV-Bcl-XL at 20 uM after 24 hrs by propidium iodide staining based flow cytometry (reference value: 1.2%); assay type: functional
SK-BR-3 = test: Growth inhibition of human SKBR3 cells after 72 hrs; assay type: functional, cell-based; conditions: SK-BR-3, 72 h
BXPC-3 [6] = test: Induction of autophagy in human BxPC3 cells assessed as increase in LC3-2 protein expression at 20 uM after 15 to 48 hrs by Western blot analysis; assay type: functional, cell-based
BXPC-3 [7] = test: Induction of apoptosis in human BxPC3 cells assessed as accumulation at sub-G0/G1 phase at 20 uM after 48 hrs in presence of autophagy inhibitor bafilomycin A1 by propidium iodide staining based flow cytometry; assay type: functional, cell-based
BXPC-3 [8] = test: Induction of apoptosis in human BxPC3 cells assessed as accumulation at sub-G0/G1 phase at 10 uM after 24 hrs by propidium iodide staining based flow cytometry (reference value: 1.8%); assay type: functional
BXPC-3 [9] = test: Induction of autophagy in human BxPC3 cells assessed as increase in LC3-2 protein expression at 20 uM after 48 hrs in presence of autophagy inhibitor 3-MA by Western blot analysis; assay type: functional, cell-based
Fibroblast [10] = test: Induction of apoptosis in human primary fibroblasts assessed as accumulation at sub-G0/G1 phase at 10 uM after 24 hrs by propidium iodide staining based flow cytometry (reference value: 4.8%); assay type: cell-based
NCI-H460 = test: Growth inhibition of human NCI-H460 cells after 72 hrs; assay type: functional, cell-based; conditions: NCI-H460, 72 h
BXPC-3 [11] = test: Induction of apoptosis in human BxPC3 cells assessed as accumulation at sub-G0/G1 phase at 20 uM after 24 to 48 hrs in presence of caspase inhibitor zVAD-fmk by propidium iodide staining based flow cytometry; assay type: functional, cell-based
BXPC-3 [12] = test: Induction of apoptosis in human BxPC3 cells assessed as accumulation at sub-G0/G1 phase at 20 uM after 48 hrs in presence of autophagy inhibitor chloroquine by propidium iodide staining based flow cytometry; assay type: functional, cell-based
MIA PaCa-2 [13] = test: Induction of autophagy in human MIAPaCa2 cells assessed as increase in LC3-2 protein expression at 20 uM after 15 to 48 hrs by Western blot analysis; assay type: functional, cell-based
PK9 [14] = test: Induction of apoptosis in human PK9 cells assessed as accumulation at sub-G0/G1 phase at 10 uM after 72 hrs by propidium iodide staining based flow cytometry (reference value: 4%); assay type: functional
PK9 [15] = test: Induction of apoptosis in human PK9 cells harboring ATG7 shRNA at 20 uM after 24 hrs by Annexin V/7-AAD staining based flow cytometry; assay type: functional, cell-based
ACHN = test: Growth inhibition of human ACHN cells after 72 hrs; assay type: functional, cell-based
Fibroblast [16] = test: Induction of apoptosis in human primary fibroblasts at 20 uM after 72 hrs by propidium iodide staining based flow cytometry (reference value: 6.7%); assay type: cell-based
HeLa = test: Growth inhibition of human HeLa cells after 72 hrs; assay type: functional, cell-based
PANC-1 [17] = test: Induction of apoptosis in human PANC1 cells assessed as accumulation at sub-G0/G1 phase at 10 uM after 48 hrs by propidium iodide staining based flow cytometry (reference value: 0.2 to 2.9%); assay type: functional
PK9 [18] = test: Induction of apoptosis in human PK9 cells assessed as accumulation at sub-G0/G1 phase at 10 uM after 24 hrs by propidium iodide staining based flow cytometry (reference value: 2.2%); assay type: functional
PK9 [19] = test: Induction of apoptosis in human PK9 cells assessed as accumulation at sub-G0/G1 phase at 20 uM after 72 hrs by propidium iodide staining based flow cytometry (reference value: 4%); assay type: functional
Jurkat = test: Growth inhibition of human Jurkat cells after 72 hrs; assay type: functional, cell-based
BXPC-3 [20] = test: Induction of apoptosis in human BxPC3 cells assessed as accumulation at sub-G0/G1 phase at 20 uM by propidium iodide staining based flow cytometry; assay type: functional, cell-based; conditions: TDE = time-dependent effect
[21] = Induction of apoptosis in HPNE cells assessed as accumulation at sub-G0/G1 phase at 10 uM after 72 hrs by propidium iodide staining based flow cytometry (reference value: 6.6%); assay type: cell-based; conditions: human
MIA PaCa-2 [22] = test: Induction of apoptosis in human MIAPaCa2 cells assessed as increase in cleaved PARP protein expression at 20 uM after 15 to 48 hrs by Western blot analysis; assay type: functional, cell-based
BXPC-3 [23] = test: Induction of apoptosis in human BxPC3 cells assessed as accumulation at sub-G0/G1 phase at 20 uM after 72 hrs by propidium iodide staining based flow cytometry (reference value: 3.4%); assay type: functional
[24] = Induction of apoptosis in HPNE cells assessed as accumulation at sub-G0/G1 phase at 20 uM after 48 hrs by propidium iodide staining based flow cytometry (reference value: 0.7%); assay type: cell-based; conditions: human
MIA PaCa-2 [25] = test: Induction of apoptosis in human MIAPaCa2 cells assessed as necrotic cells at 20 uM after 48 hrs by Annexin V-FITC/propidium iodide staining based flow cytometry (reference value: 0.63%); assay type: functional
BXPC-3 [26] = test: Induction of apoptosis in human BxPC3 cells assessed as accumulation at sub-G0/G1 phase at 20 uM after 48 hrs in presence of autophagy inhibitor 3-MA by propidium iodide staining based flow cytometry; assay type: functional, cell-based
BXPC-3 [27] = test: Growth inhibition of human BxPC3 cells after 72 hrs by XTT assay; assay type: functional, cell-based; conditions: BXPC-3, 72 h
PANC-1 [28] = test: Growth inhibition of human PANC1 cells after 72 hrs by XTT assay; assay type: functional, cell-based; conditions: PANC-1, 72 h

Structure (SMILES)	Activity (BXPC-3 [5]) [%]	Activity (BXPC-3 [6])	Activity (BXPC-3 [7])	Activity (BXPC-3 [8]) [%]	Activity (Fibroblast [10]) [%]	Activity (BXPC-3 [11])	Activity (BXPC-3 [12])	Activity (MIA PaCa-2 [13])	Activity (PK9 [14]) [%]	Activity (Fibroblast [16]) [%]	Activity (PANC-1 [17]) [%]	Activity (PK9 [18]) [%]	Activity (PK9 [19]) [%]	Activity [21] [%]	Activity (MIA PaCa-2 [22])	Activity (BXPC-3 [23]) [%]	Activity [24] [%]	Activity (MIA PaCa-2 [25]) [%]	Activity (BXPC-3 [26])	other results
CCCCCC/C=C\CCCCCCCCOC[C@H]1NC[C@H](O)[C@@H]1O	2.8	Active	Active	9.6	7.9	inactive	Active	Active	6.5	18.7	7.1	3.8	28.6	42.1	Active	46.8	75.7	3.44	Active	Activity (PK9 [1]): Active; Activity (BXPC-3 [2]): Active; Activity (PANC-1 [3]): Tde; Activity (BXPC-3 [4]): Tde; pIC50 (SK-BR-3): 5.22; Activity (BXPC-3 [9]): inactive; pIC50 (NCI-H460): 5.05; Activity (PK9 [15]): Active; pIC50 (ACHN): 5.52; pIC50 (HeLa): 5.70; pIC50 (Jurkat): 6.00; Activity (BXPC-3 [20]): Tde
CCCCCCCCCCCCCCCCCCOCC(COP(=O)([O-])OCC[N+](C)(C)C)OC (configuration not stated) [EDELFOSINE]	3	Active	Active	14.2	5.2	inactive	Active	Active	10.3	9.8	11.5	3.8	15.6	4.8	Active	39.2	7.3	1.79	Active	pIC50 (BXPC-3 [27]): 4.73; pIC50 (PANC-1 [28]): 4.59
